According to the OPERA property sets (Mansouri et al. 2018):

SMILES	logP
CC1(c2ccncc2)CCC(=O)NC1=O (stereo not drawn)	0.07
O=[N+]([O-])c1cccc(-c2ccccc2)c1	3.87
CCOC(OCC)OCC	1.2
ClCCOCCCl	1.29
COC1C(O)C(C)OC(OC2CCC3(C)C(CCC4C3CCC3(C)C(C5=CC(=O)OC5)CCC43O)C2)C1O (stereo not drawn)	2.1
CCCCn1nnc2ccccc21	2.57
NC(=O)c1ccccc1NC(=O)C(Cl)Cl	1.68
NC(=O)Nc1nc(-c2ccccc2)no1	1.76
Nc1nc(N)c2nc(-c3ccccc3)c(N)nc2n1	0.98
COc1ccc(Cl)cc1C(=O)NCCc1ccc(C(=O)O)cc1	3.4
CNCC(O)c1ccc(O)c(OC)c1 (stereo not drawn)	-0.64
Nc1nc(N)nc(-c2cccc(F)c2)n1	1.73
CON(C)C(=O)Nc1ccc(Cl)cc1	2.3
O=NN(CCCl)C(=O)NC1CCCCC1	2.83
O=C1C=C(N2CCCC2)C(=O)c2ccccc21	2.89
NC(=S)c1cccnc1	0.67
CCCCn1cnc2c(N)ncnc21	1.25
CC(=O)Oc1cccc2cccnc12	2.03
COc1ccc(C=CNC=O)cc1	1.94
Nc1cnc2ccccc2c1	1.63
c1ccc(P(c2ccccc2)c2ccccc2)cc1	5.69

SMILES	logP
C=C(CC(Cl)(Cl)Cl)c1ccccc1	4.56
ClCCCCl	2
Nc1nc(N)nc(-c2ccccc2)n1	1.36
O=C(O)COc1ccc(Br)cc1	2.45
O=C1Cc2ccccc2N1	1.16
CCCCOc1cccc(OC(=O)NC)c1	2.96
CN(C)C(=O)Nc1cccc(N)c1	-0.1
CCOC(=O)CBr	1.12
CCCCCCCCCCCCCC	7.2
NC(=O)c1cc([N+](=O)[O-])cc([N+](=O)[O-])c1	0.83
CCOP(=S)(Oc1ccc(C#N)cc1)c1ccccc1 (stereo not drawn)	4.29
COC(=O)c1ccccc1N	1.88
O=C1c2ccccc2C(=O)c2ccccc21	3.39
Nc1ccnc2c([N+](=O)[O-])cccc12	1.31
NC(=O)Cc1cccnc1	-0.71
C=CCC1(C(C)CCC)C(=O)NC(=O)NC1=O (stereo not drawn)	1.97
Nc1ccc(C(=O)Oc2ccccc2F)c(O)c1	3.29
O=Cc1cccnc1	0.29
O=Cc1c[nH]c2ccccc12	1.68
NS(=O)(=O)CCCOc1ccc([N+](=O)[O-])cc1	0.97
CCCCCCCCNC(=O)c1[nH]nc(C)c1[N+](=O)[O-]	3.48

SMILES	logP
COc1cc(C(=O)O)cc(OC)c1O	1.04
C=CCNCC	0.81
CCOCC	0.89
O=[N+]([O-])c1ccc(F)cc1	1.8
CC1(C)S[C@@H]2[C@H](NC(=O)COc3ccccc3)C(=O)N2[C@H]1C(=O)O	2.09
Cc1noc(NS(=O)(=O)c2ccc(N)cc2)c1C	1.01
O=[N+]([O-])c1cc[n+]([O-])c2ccc(Cl)cc12	1.41
CC(C)C(N)C(=O)O (stereo not drawn)	-2.26
CC(C)(O)C(Cl)(Cl)Cl	2.03
CCCCCCCC(=O)O	3.05
Cc1ccc2cc(C)c(C)cc2c1	4.73
O=C(O)CCCOc1ccc(Cl)cc1Cl	3.53
CCc1ccsc1	2.82
Cn1c([N+](=O)[O-])cnc1-c1ccc(C(N)=O)cc1	0.98
CCCCOCCO	0.83
NC(CC(=O)O)c1ccccc1 (stereo not drawn)	-1.4
O=c1ccoc2cc(O)ccc12	1.44
NCCCc1ccccn1	0.49
CCOc1c(OC)cc(CCN)cc1OC	1.11
O=C(O)Cc1cccc(C(F)(F)F)c1	2.62
CC(C)(C)CO	1.31
